Among the data in paper PMC6155222, “3-Substituted N-Benzylpyrazine-2-carboxamide Derivatives: Synthesis, Antimycobacterial and Antibacterial Evaluation” (Molecules : A Journal of Synthetic Chemistry and Natural …, 2017) are MIC and Log k values, retold here.

Values after ≈ are worked out from the molar mass of the structure shown. Like-named read-outs stand apart in the source and are kept apart here.

The subject of data set [1] is Mycobacterium tuberculosis H37Rv. Briefly: Microplate Alamar Blue Assay (MABA), microdilution panel method. Type of data set: cell-based. For orientation: The colour change of resazurin is a common sign of viable cells or microbes.
A short description of data set [2]: Determination of lipophilicity by RP-HPLC (log k). Conditions: RP-HPLC capacity factor, MeOH 70% / H2O 30%, C18, 30 °C.
Description: Log k was determined using an Agilent Technologies 1200 SL liquid chromatograph with Diode-array Detector SL G1315C (Agilent Technologies Inc., Colorado Springs, CO, USA), with pre-column ZORBAX XDB-C18 5 μm, 4 mm × 4 mm, Part No. 7995118-504 (Agilent Technologies Inc.) and column ZORBAX Eclipse XDB-C18 5 μm, 4.6 mm × 250 mm, Part No. 7995118-585 (Agilent Technologies Inc.). The separation process was controlled by Agilent ChemStation, version B.04.02, extended by a spectral module (Agilent Technologies Inc.). The mobile phase consisted of MeOH (HPLC grade, 70%) and H2O (HPLC-Milli-Q Grade, 30%).
The flow rate was 1.0 mL/min, samples were injected in a volume of 20 μL, and the column temperature was 30 °C. A value of 210 nm as the detection wavelength and 270 nm as the monitor wavelength were used. Retention times (tR) were measured in minutes. The dead time of the system (tD) was determined as the retention time of the KI methanol solution. Capacity factors k for individual compounds were calculated according to the formula k = (tR − tD)/tD. Log k, calculated from the capacity factor k, as used as the lipophilicity index converted to log scale.
For data set [3], the system named is Mycobacterium smegmatis CCM 4622 (ATCC 607). Briefly: Antimycobacterial screening, microdilution broth panel method with resazurin. Format: cell-based. Conditions: Mycolicibacterium smegmatis, 48 h + 4 h. As to the method: An antimycobacterial assay was performed with fast growing Mycobacterium smegmatis CCM 4622 (ATCC 607) from the Czech Collection of Microorganisms (Brno, Czech Republic). The technique used for activity determination was a microdilution broth panel method using 96-well microtitration plates. The culturing medium was Middlebrook 7H9 (MB) broth (Sigma-Aldrich), enriched with 0.4% of glycerol (Sigma-Aldrich) and 10% of Middlebrook OADC growth supplement (Himedia, Mumbai, India). Tested compounds were dissolved in DMSO (Sigma-Aldrich), and the MB broth was then added to obtain a concentration of 2000 μg·mL^−1. Standards used for activity determination were isoniazid (INH), rifampicin (RIF), and ciprofloxacin (CPX) (Sigma-Aldrich). Final concentrations were reached by binary dilution and the addition of mycobacterial suspension, and were set as 500, 250, 125, 62.5, 31.25, 15.625, 7.81, and 3.91 μg·mL^−1, except for the standards of ciprofloxacin and rifampicin, where the final concentrations were 12.5, 6.25, 3.125, 1.56, 0.78, 0.39, 0.195, and 0.098 μg·mL^−1. […] Plates were also sealed with polyester adhesive film and incubated in the dark at 37 °C, without agitation. The addition of 0.01% solution of resazurin sodium salt followed after 48 h. This stain was prepared by dissolving resazurin sodium salt (Sigma-Aldrich) in deionised water, producing a 0.02% solution. Then, a 10% aqueous solution of Tween 80 (Sigma-Aldrich) was prepared. Both liquids were mixed up making use of the same volumes and filtered through a syringe membrane filter. Microtitration panels were then incubated for a further 4 h. Antimycobacterial activity was expressed as the minimal inhibition concentration (MIC) and the value was read on the basis of stain colour change (blue colour—active compound; pink colour—not active compound). […] All experiments were conducted in duplicate.
(In general: Dilution methods test growth across graded concentrations, often in twofold steps.)

In data set [4] the test system is Staphylococcus aureus H 5996/08-methicilin resistant (MRSA). Put plainly: Antibacterial microdilution broth method. Type of data set: cell-based. Particulars: 24 h, read-out: MIC after 24 h MRSA. How it is done: (§1) Microdilution broth method. Antibacterial evaluation was performed against eight bacterial strains from the Czech Collection of Microorganisms (Brno, Czech Republic) (Staphylococcus aureus CCM 4516/08, Escherichia coli CCM 4517, Pseudomonas aeruginosa CCM 1961) or clinical isolates from the Department of Clinical Microbiology, University Hospital and Faculty of Medicine in Hradec Králové, Charles University in Prague, Czech Republic (Staphylococcus aureus H 5996/08-methicilin resistant (MRSA), Staphylococcus epidermidis H 6966/08, Enterococcus sp. J 14365/08, Klebsiella pneumoniae D 11750/08, Klebsiella pneumoniae J 14368/08-ESBL positive). All strains were subcultured on Mueller-Hinton agar (MHA) (Difco/Becton Dickinson, Detroit, MI, USA) at 35 °C and maintained on the same medium at 4 °C. The compounds were dissolved in DMSO, and the antibacterial activity was determined in Mueller-Hinton liquid broth (Difco/Becton Dickinson), and buffered to pH 7.0. Controls consisted of medium and DMSO alone. […] The minimum inhibitory concentration (MIC), defined as the minimum concentration to prevent the visible growth compared to control, was determined after 24 and 48 h of static incubation at 35 °C. The standards were neomycin, bacitracin, penicillin G, ciprofloxacin, and phenoxymethylpenicillin.

Data set [5] concerns Staphylococcus epidermidis H 6966/08. Briefly: Antibacterial microdilution broth method. Type of data set: cell-based. Particulars: read-out: MIC after 24 h S. epidermidis. How it is done:
as §1

For data set [6], the system named is Staphylococcus aureus CCM 4516/08. Briefly: Antibacterial microdilution broth method. Type of data set: cell-based. Conditions: CCM4516, 24 h, read-out: MIC after 24 h S. aureus. How it is done: as §1
The mark [7] stands for this setting: Staphylococcus epidermidis, H6966/08, 24 h.

The term MIC denotes the smallest concentration in the dilution series that meets the test's criterion for growth inhibition. As to `O=C(NCc1ccccc1F)c1nccnc1Cl` [Compound 10, 3-Chloro-N-(2-fluorobenzyl)pyrazine-2-carboxamide], the values for the minimum inhibitory concentration (MIC) in data set [1] (pH 6.6) and in data set [3] were over 100 µg/mL and 125 µg/mL, respectively. For the same compound, the Log k in data set [2] was −0.154.

For the compound `O=C(NCc1ccc(Cl)cc1)c1nccnc1Cl` [Compound 7, 3-Chloro-N-(4-chlorobenzyl)pyrazine-2-carboxamide], the values for the MIC in data set [1] (pH 6.6) and in data set [3] were over 100 µg/mL and 500 µg/mL, respectively. In data set [2], the Log k amounted to 0.082.

For `O=C(NCc1ccc(F)cc1)c1nccnc1NCc1ccc(F)cc1` [Compound 11a, N-(4-Fluorobenzyl)-3-((4-fluorobenzyl)amino)pyrazine-2-carboxamide], the values for the MIC in data set [1] (pH 6.6) and in data set [3] were over 100 µg/mL and over 500 µg/mL, respectively. In data set [2], the Log k is listed as 1.058.

Turning to `O=C(NCc1ccc(F)cc1)c1nccnc1Cl` [Compound 11, 3-Chloro-N-(4-fluorobenzyl)pyrazine-2-carboxamide], the values for the MIC in data set [1] (pH 6.6) and in data set [3] were over 100 µg/mL and 250 µg/mL, respectively. The compound also displayed a Log k in data set [2] of −0.139.

Turning to `Cc1ccc(CNC(=O)c2nccnc2NCc2ccc(C)cc2)cc1` [Compound 2a, N-(4-Methylbenzyl)-3-((4-methylbenzyl)amino)pyrazine-2-carboxamide], the MIC was 25 µg/mL in data set [1] (pH 6.6), 72 µM in data set [1] (value in parentheses) and over 250 µg/mL in data set [3]. Besides, the Log k in data set [2] turned out to be 1.517.

On to `O=C(O)c1cn(C2CC2)c2cc(N3CCNCC3)c(F)cc2c1=O` [CPX, ciprofloxacin, reference compound], for which the MIC in data set [3] lay within 0.098 to 0.195 µg/mL.

In the case of `O=C(NCc1ccc(C(F)(F)F)cc1)c1nccnc1NCc1ccc(C(F)(F)F)cc1` [Compound 13a, N-(4-(Trifluoromethyl)benzyl)-3-((4-(trifluoromethyl)benzyl)amino)pyrazine-2-carboxamide], the MIC in data set [1] (pH 6.6) was over 100 µg/mL; in data set [3], over 500 µg/mL; in data set [4] (Staphylococcus aureus, MRSA), over 500 µM; in data set [5] (setting [7]), over 500 µM; in data set [6], 62.5 µM (≈ 28.4 µg/mL). For the same compound, the Log k in data set [2] amounted to 1.593.

Consider `COc1ccc(CNC(=O)c2nccnc2Cl)c(OC)c1` [Compound 4, 3-Chloro-N-(2,4-dimethoxybenzyl)pyrazine-2-carboxamide], for which the MIC in data set [1] (pH 6.6) was over 100 µg/mL; in data set [3], over 500 µg/mL; in data set [4] (Staphylococcus aureus, MRSA) it was over 500 µM; in data set [5] (setting [7]) it was over 500 µM; in data set [6] it was 125 µM (≈ 38.5 µg/mL). Moreover, the Log k in data set [2] is −0.095.

Take `Cc1ccc(CNC(=O)c2nccnc2Cl)cc1` [Compound 2, 3-Chloro-N-(4-methylbenzyl)pyrazine-2-carboxamide]: the MIC in data set [1] (pH 6.6) was over 100 µg/mL; in data set [3], over 500 µg/mL; in data set [4] (Staphylococcus aureus, MRSA) it was over 500 µM; in data set [5] (setting [7]), 500 µM (≈ 131 µg/mL); in data set [6] it was 125 µM (≈ 32.7 µg/mL). This compound also displayed a Log k in data set [2] of 0.033.

As to `O=C(NCc1ccc(Cl)cc1Cl)c1nccnc1Cl` [Compound 8, 3-Chloro-N-(2,4-dichlorobenzyl)pyrazine-2-carboxamide], the MIC in data set [1] (pH 6.6) is over 100 µg/mL; in data set [3] it was 125 µg/mL; in data set [4] (Staphylococcus aureus, MRSA) it was 250 µM (≈ 79.1 µg/mL); in data set [5] (setting [7]), 125 µM (≈ 39.6 µg/mL); in data set [6], 125 µM (≈ 39.6 µg/mL). The same compound displayed a Log k in data set [2] of 0.375.

On to `Cc1ccccc1CNC(=O)c1nccnc1Cl` [Compound 1, 3-Chloro-N-(2-methylbenzyl)pyrazine-2-carboxamide], for which the results for the MIC in data set [1] (pH 6.6) and in data set [3] were over 100 µg/mL and 250 µg/mL, respectively. The compound also returned a Log k in data set [2] of 0.009.

As for `COc1ccc(CNC(=O)c2nccnc2Cl)cc1` [Compound 3, 3-Chloro-N-(4-methoxybenzyl)pyrazine-2-carboxamide], the MIC in data set [1] (pH 6.6) is 25 µg/mL; in data set [1] (value in parentheses) it was 90 µM; in data set [3], 125 µg/mL; in data set [4] (Staphylococcus aureus, MRSA), 125 µM (≈ 34.7 µg/mL); in data set [5] (setting [7]), 250 µM (≈ 69.4 µg/mL); in data set [6] it was 31.2 µM (≈ 8.68 µg/mL). The Log k in data set [2] is on record as −0.202.

As for `O=C(NCc1cccc(C(F)(F)F)c1)c1nccnc1Cl` [Compound 12, 3-Chloro-N-(3-(trifluoromethyl)benzyl)pyrazine-2-carboxamide], the values for the MIC in data set [1] (pH 6.6) and in data set [3] were over 100 µg/mL and 125 µg/mL, respectively. Besides, the Log k in data set [2] is 0.110.

Turning to `O=C(NCc1cccc(Cl)c1)c1nccnc1Cl` [Compound 6, 3-Chloro-N-(3-chlorobenzyl)pyrazine-2-carboxamide], the MIC in data set [1] (pH 6.6) turned out to be 100 µg/mL; in data set [3], 125 µg/mL. In data set [2], the Log k was found to be 0.060.

In the case of `O=C(NCc1cccc(Cl)c1)c1nccnc1NCc1cccc(Cl)c1` [Compound 6a, N-(3-Chlorobenzyl)-3-((3-chlorobenzyl)amino)pyrazine-2-carboxamide], the MIC in data set [1] (pH 6.6) was over 100 µg/mL; in data set [3], over 500 µg/mL. Further, in data set [2], the Log k is reported as 1.515.

Regarding `CO[C@H]1/C=C/O[C@@]2(C)Oc3c(C)c(O)c4c(O)c(c(/C=N/N5CCN(C)CC5)c(O)c4c3C2=O)NC(=O)/C(C)=C\C=C\[C@H](C)[C@H](O)[C@@H](C)[C@@H](O)[C@@H](C)[C@H](OC(C)=O)[C@@H]1C` [RIF, rifampicin, reference compound], in data set [3], the MIC is 0.78 to 1.56 µg/mL.

Consider neomycin [reference compound], for which the MIC in data set [4] was 0.98 µM; in data set [5] (24 h) it was 7.81 µM.

For `O=C(NCc1ccc(Cl)c(Cl)c1)c1nccnc1Cl` [Compound 9, 3-Chloro-N-(3,4-dichlorobenzyl)pyrazine-2-carboxamide], the MIC stood at 100 µg/mL in data set [1] (pH 6.6); 250 µg/mL in data set [3]; 250 µM (≈ 79.1 µg/mL) in data set [4] (Staphylococcus aureus, MRSA); 31.2 µM (≈ 9.89 µg/mL) in data set [5] (setting [7]); 62.5 µM (≈ 19.8 µg/mL) in data set [6]. Moreover, the Log k in data set [2] stood at 0.309.

In the case of `CC1(C)S[C@@H]2[C@H](NC(=O)COc3ccccc3)C(=O)N2[C@H]1C(=O)O` [Penicillin V, phenoxymethylpenicillin, reference compound], the MIC stood at 62.5 µM (≈ 21.9 µg/mL) in data set [4] (Staphylococcus aureus, MRSA); 3.9 µM (≈ 1.37 µg/mL) in data set [5] (setting [7]); 0.12 µM (≈ 0.042 µg/mL) in data set [6].

For the compound `O=C(NCc1ccccc1F)c1nccnc1NCc1ccccc1F` [Compound 10a, N-(2-Fluorobenzyl)-3-((2-fluorobenzyl)amino)pyrazine-2-carboxamide], the MIC in data set [1] (pH 6.6) was over 100 µg/mL; in data set [3] it was over 500 µg/mL. The compound also displayed a Log k in data set [2] of 1.108.

With `O=C(NCc1ccc(C(F)(F)F)cc1)c1nccnc1Cl` [Compound 13, 3-Chloro-N-(4-(trifluoromethyl)benzyl)pyrazine-2-carboxamide], the MIC in data set [1] (pH 6.6) is over 100 µg/mL; in data set [3], over 500 µg/mL; in data set [4] (Staphylococcus aureus, MRSA), 500 µM (≈ 158 µg/mL); in data set [5] (setting [7]), 62.5 µM (≈ 19.7 µg/mL); in data set [6], 31.2 µM (≈ 9.87 µg/mL). The same compound yielded a Log k in data set [2] of 0.145.

For the compound `O=C(NCc1ccccc1Cl)c1nccnc1NCc1ccccc1Cl` [Compound 5a, N-(2-Chlorobenzyl)-3-((2-chlorobenzyl)amino)pyrazine-2-carboxamide], the MIC is over 100 µg/mL in data set [1] (pH 6.6) and over 500 µg/mL in data set [3]. The compound also gave a Log k in data set [2] of 1.542.
